The values that follow come from patent publication US12577267B2, “Pyrimidine compounds for use as MAP4K1 inhibitors” (GLENMARK SPECIALITY S.A., priority 2021, dated 2026).

Where a name gives a salt, the structure may show the parent alone. Read-outs that look alike come from different tables or passages of the source. Where only a bound is given, the exact number is not on record here.

The experiment concerns the target MAP4K-1 enzyme (Homo sapiens, UniProt Q92918). Nature of the experiment: FRET one step binding assay (tracer displacement). To be noted: for inhibition at 1 µM: 1 μM compound; for inhibition at 10 µM: 10 μM compound. As for the experimental part:
This is a one step binding assay based on the binding and displacement of the labeled tracer, where compound addition is followed by addition of the anti-GST tagged europium (Eu) as the donor and Alexa Fluor-labeled tracer as the acceptor.
Test compounds were dissolved in dimethylsulfoxide (DMSO) to prepare 10.0 mM stock solutions and diluted to the desired concentration. The final concentration of DMSO in the reaction was 3% (v/v). The assay mixture was prepared by mixing 2 nM of the Eu-Anti-GST Antibody and 5 nM MAP4K-1 enzyme in the Kinase buffer containing 50 mM HEPES (pH 7.5), 10 mM MgCl2, 1 mM EGTA, 0.01% Brij-35 with or without the desired concentration of the compound. The reaction was incubated on ice for 15 min. […] After shaking for 5 min the reaction was further incubated for 1 hour at room temperature and this was kept at 4° C. and read on ARTEMIS reader as per the kit instructions (Thermo). […] The activity was calculated as percent of control reaction. IC50 values were calculated from dose response curve by nonlinear regression analysis using GraphPad Prism software.

MAP4K-1 enzyme, sequence (Q92918 whole entry): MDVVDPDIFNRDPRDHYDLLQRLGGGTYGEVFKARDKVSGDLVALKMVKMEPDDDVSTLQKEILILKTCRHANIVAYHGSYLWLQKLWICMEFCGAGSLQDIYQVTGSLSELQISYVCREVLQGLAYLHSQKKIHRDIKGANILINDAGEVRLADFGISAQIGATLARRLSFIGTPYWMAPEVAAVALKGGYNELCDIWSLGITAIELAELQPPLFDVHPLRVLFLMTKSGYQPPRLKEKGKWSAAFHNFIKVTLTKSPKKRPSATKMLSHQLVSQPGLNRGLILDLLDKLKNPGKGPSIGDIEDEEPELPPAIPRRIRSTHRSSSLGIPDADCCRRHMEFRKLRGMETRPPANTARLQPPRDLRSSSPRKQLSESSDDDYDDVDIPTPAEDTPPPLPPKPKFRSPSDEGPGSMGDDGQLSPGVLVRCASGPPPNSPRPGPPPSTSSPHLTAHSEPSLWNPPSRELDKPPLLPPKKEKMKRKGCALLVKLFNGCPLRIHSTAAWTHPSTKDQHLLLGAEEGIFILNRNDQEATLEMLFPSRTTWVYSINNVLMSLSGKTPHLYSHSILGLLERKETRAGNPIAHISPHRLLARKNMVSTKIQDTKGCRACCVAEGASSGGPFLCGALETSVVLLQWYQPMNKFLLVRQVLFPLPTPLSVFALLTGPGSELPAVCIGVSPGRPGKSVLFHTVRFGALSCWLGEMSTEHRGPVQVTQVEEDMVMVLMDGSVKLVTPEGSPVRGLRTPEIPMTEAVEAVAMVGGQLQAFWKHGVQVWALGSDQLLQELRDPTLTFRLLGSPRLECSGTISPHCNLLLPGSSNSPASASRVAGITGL

On to `COc1cc2c(cc1Nc1ncc(Cl)c(Nc3ccc(OS(=O)(=O)F)cc3P(C)(C)=O)n1)CNCC2` [Example 38, 4-((5-Chloro-2-((6-methoxy-1,2,3,4-tetrahydroisoquinolin-7-yl)amino)pyrimidin-4-yl)amino)-3-(dimethylphosphoryl)phenylsulfofluoridate dihydrochloride], for which the inhibition at 1 µM was determined as 84.5% and the inhibition at 10 µM was found to be 85.7%. For the same compound, the IC50 (IC50 (nM)) is < 50 nM.

With `[2H]C([2H])([2H])Oc1cc2c(cc1Nc1ncc(Cl)c(Nc3ccc(OS(=O)(=O)F)cc3P(C)(C)=O)n1)CNCC2` [Example 39, 4-((5-Chloro-2-((6-methoxy-d3-1,2,3,4-tetrahydroisoquinolin-7-yl)amino)pyrimidin-4-yl)amino)-3-(dimethylphosphoryl)phenyl sulfofluoridate dihydrochloride], the inhibition at 1 µM worked out at 75.1% and the inhibition at 10 µM came out at 87%. The IC50 (IC50 (nM)) is < 50 nM.

As for `[2H]C([2H])([2H])Oc1cc2c(cc1Nc1ncc(Cl)c(Nc3ccc(OS(=O)(=O)F)cc3P(C)(C)=O)n1)C([2H])([2H])NCC2` [Example 40, 4-((5-Chloro-2-((6-methoxy-d3-1,2,3,4-tetrahydroisoquinolin-7-yl-1,1-d2)amino)pyrimidin-4-yl)amino)-3-(dimethylphosphoryl)phenyl sulfofluoridate dihydrochloride], the inhibition at 1 µM stood at 83.3% and the inhibition at 10 µM was determined as 84%. For the same compound, for the setting “IC50 (nM)”, the IC50 was < 50 nM.

Take `Cn1nc(Nc2ncc(Cl)c(Nc3ccc(OS(=O)(=O)F)cc3P(C)(C)=O)n2)c2c1CNC2` [Example 41, 4-((5-Chloro-2-((1-methyl-1,4,5,6-tetrahydropyrrolo[3,4-c]pyrazol-3-yl)amino)pyrimidin-4-yl)amino)-3-(dimethylphosphoryl)phenyl sulfofluoridate hydrochloride]: testing at 1 µM gave an inhibition of 90.4% and at 10 µM the inhibition was 85%. Also, for the setting “IC50 (nM)”, the IC50 is < 50 nM.

`CP(C)(=O)c1cc(OS(=O)(=O)F)ccc1Nc1nc(Nc2cc3n(n2)CCNC3)ncc1Cl` [Example 42, 4-((5-Chloro-2-((4,5,6,7-tetrahydropyrazolo[1,5-a]pyrazin-2-yl)amino)pyrimidin-4-yl)amino)-3-(dimethylphosphoryl)phenyl sulfofluoridate dihydrochloride] showed an inhibition at 1 µM of 84% and an inhibition at 10 µM of 83%. Moreover, the IC50 (IC50 (nM)) is < 50 nM.

For `COc1cc2c(cc1Nc1ncc(Cl)c(Nc3ccc(N(C)S(=O)(=O)F)cc3P(C)(C)=O)n1)CN(C)CC2` [Example 43, 4-((5-Chloro-2-((6-methoxy-2-methyl-1,2,3,4-tetrahydroisoquinolin-7-yl)amino)pyrimidin-4-yl)amino)-3-(dimethylphosphoryl)phenyl)(methyl)sulfamoylfluoride dihydrochloride], the inhibition at 1 µM came to 80% and the inhibition at 10 µM amounted to 80.5%. For the same compound, where the note is “IC50 (nM)”, the IC50 is < 50 nM.

Regarding `COc1cc2c(cc1Nc1ncc(Cl)c(Nc3ccc(OC(F)F)cc3P(C)(C)=O)n1)CN(C)CC2` [Example 45, (2-((5-Chloro-2-((6-methoxy-2-methyl-1,2,3,4-tetrahydroisoquinolin-7-yl)amino)pyrimidin-4-yl)amino)-5-(difluoromethoxy)phenyl)dimethylphosphineoxide], the inhibition at 1 µM came out at 74.8% and testing at 10 µM gave an inhibition of 79%. Also, the IC50 (read-out: IC50) was < 50 nM.

Turning to `COc1cc2c(cc1Nc1ncc(Cl)c(Nc3ccc(OCC(F)F)cc3P(C)(C)=O)n1)CN(C)CC2` [Example 46, (2-((5-Chloro-2-((6-methoxy-2-methyl-1,2,3,4-tetrahydroisoquinolin-7-yl)amino)pyrimidin-4-yl)amino)-5-(2,2-difluoroethoxy)phenyl) dimethylphosphine oxide], testing at 1 µM gave an inhibition of 73.6% and the inhibition at 10 µM turned out to be 73.9%. Further, the IC50 (read-out: IC50) is < 50 nM.

`COc1cc2c(cc1Nc1ncc(Cl)c(Nc3ccc(OC(F)(F)F)cc3P(C)(C)=O)n1)CN(C)CC2` [Example 47] gave an inhibition at 1 µM of 91.4% and an inhibition at 10 µM of 88%. In addition, the IC50 (read-out: IC50) was < 50 nM.

`COc1cc2c(cc1Nc1ncc(Cl)c(Nc3ccc(O[C@H]4CCOC4)cc3P(C)(C)=O)n1)CN(C)CC2` [Example 48, (S)-(2-((5-Chloro-2-((6-methoxy-2-methyl-1,2,3,4-tetrahydroisoquinolin-7-yl)amino)pyrimidin-4-yl)amino)-5-((tetrahydrofuran-3-yl)oxy)phenyl)dimethylphosphineoxide] came in with an inhibition at 1 µM of 84.2% and an inhibition at 10 µM of 81.4%. In addition, the IC50 (read-out: IC50) is < 50 nM.

`COc1cc2c(cc1Nc1ncc(Cl)c(Nc3ccc(O[C@@H]4CCOC4)cc3P(C)(C)=O)n1)CN(C)CC2` [Example 49, (R)-(2-((5-Chloro-2-((6-methoxy-2-methyl-1,2,3,4-tetrahydroisoquinolin-7-yl)amino)pyrimidin-4-yl)amino)-5-((tetrahydrofuran-3-yl)oxy)phenyl)dimethyl phosphine oxide] had an inhibition at 1 µM of 94.3% and an inhibition at 10 µM of 91.7%. Further, where the note is “read-out: IC50”, the IC50 was < 50 nM.

`COCCOc1ccc(Nc2nc(Nc3cc4c(cc3OC)CCN(C)C4)ncc2Cl)c(P(C)(C)=O)c1` [Example 50, (2-((5-Chloro-2-((6-methoxy-2-methyl-1,2,3,4-tetrahydroisoquinolin-7-yl)amino)pyrimidin-4-yl)amino)-5-(2-methoxyethoxy)phenyl)dimethyl phosphine oxide] displayed an inhibition at 1 µM of 92.7% and an inhibition at 10 µM of 94.8%. Besides, the IC50 (read-out: IC50) is < 50 nM.

The compound `COc1cc2c(cc1Nc1ncc(Cl)c(Nc3ccc(OC4COC4)cc3P(C)(C)=O)n1)CN(C)CC2` [Example 51, (2-((5-Chloro-2-((6-methoxy-2-methyl-1,2,3,4-tetrahydroisoquinolin-7-yl)amino)pyrimidin-4-yl)amino)-5-(oxetan-3-yloxy)phenyl)dimethyl phosphine oxide] had an inhibition at 1 µM of 93.1% and an inhibition at 10 µM of 94.3%. Besides, where the note is “read-out: IC50”, the half-maximal inhibitory concentration (IC50) is < 50 nM.

On to `COc1cc2c(cc1Nc1ncc(Cl)c(Nc3ccc(C(=O)N(C)CCF)cc3P(C)(C)=O)n1)CN(C)CC2` [Example 52, 4-((5-Chloro-2-((6-methoxy-2-methyl-1,2,3,4-tetrahydroisoquinolin-7-yl)amino)pyrimidin-4-yl)amino)-3-(dimethylphosphoryl)-N-(2-fluoroethyl)-N-methyl benzamide], for which the inhibition at 1 µM stood at 88.2% and at 10 µM the inhibition was 85.5%. Where the note is “read-out: IC50”, the IC50 is < 50 nM.

On to `COc1cc2c(cc1Nc1ncc(Cl)c(Nc3ccc(N(C)C(=O)C(F)F)cc3P(C)(C)=O)n1)CN(C)CC2` [Example 53, N-(4-((5-Chloro-2-((6-methoxy-2-methyl-1,2,3,4-tetrahydroisoquinolin-7-yl)amino)pyrimidin-4-yl)amino)-3-(dimethylphosphoryl)phenyl)-2,2-difluoro-N-methylacetamide], for which 1 µM produced 82.4% inhibition and the inhibition at 10 µM was determined as 90%. Also, the IC50 (read-out: IC50) fell in the range of 50 to 100 nM.

`COc1cc2c(cc1Nc1ncc(Cl)c(Nc3ccc(C(F)F)cc3P(C)(C)=O)n1)CN(C)CC2` [Example 54, (2-((5-Chloro-2-((6-methoxy-2-methyl-1,2,3,4-tetrahydroisoquinolin-7-yl)amino)pyrimidin-4-yl)amino)-5-(difluoromethyl)phenyl)dimethylphosphine oxide] gave an inhibition at 1 µM of 93.4% and an inhibition at 10 µM of 93.7%. In addition, the IC50 (read-out: IC50) is < 50 nM.

`COc1cc2c(cc1Nc1ncc(Cl)c(Nc3ccc(C(F)(F)F)cc3P(C)(C)=O)n1)CN(C)CC2` [Example 55, (2-((5-Chloro-2-((6-methoxy-2-methyl-1,2,3,4-tetrahydroisoquinolin-7-yl)amino)pyrimidin-4-yl)amino)-5-(trifluoromethyl)phenyl) dimethylphosphine oxide] had an inhibition at 1 µM of 94.6% and an inhibition at 10 µM of 95.3%. For the setting “read-out: IC50”, the IC50 was < 50 nM.

In the case of `COc1cc2c(cc1Nc1ncc(Cl)c(Nc3ccc(NC(=O)CCl)cc3P(C)(C)=O)n1)CN(C)CC2` [Example 56, 2-Chloro-N-(4-((5-chloro-2-((6-methoxy-2-methyl-1,2,3,4-tetrahydroisoquinolin-7-yl)amino)pyrimidin-4-yl)amino)-3-(dimethylphosphoryl)phenyl)acetamide hydrochloride], the inhibition at 1 µM was determined as 88.7% and the inhibition at 10 µM was found to be 88.2%. Further, the IC50 (read-out: IC50) is < 50 nM.

Turning to `COc1cc2c(cc1Nc1ncc(Cl)c(N=S(C)(=O)c3ccccc3P(C)(C)=O)n1)CN(C)CC2` (stereo not drawn) [Example 57, (2-(N-(5-Chloro-2-((6-methoxy-2-methyl-1,2,3,4-tetrahydroisoquinolin-7-yl)amino)pyrimidin-4-yl)-S-methylsulfonimidoyl)phenyl)dimethylphosphine oxide], the inhibition at 1 µM stood at 83% and the inhibition at 10 µM was 79.3%. Further, the IC50 (read-out: IC50) was 50 to 100 nM.

`COc1cc2c(cc1Nc1ncc(Cl)c(Nc3ccc(S(C)(=N)=O)cc3P(C)(C)=O)n1)CN(C)CC2` (stereo not drawn) [Example 58, (2-((5-Chloro-2-((6-methoxy-2-methyl-1,2,3,4-tetrahydroisoquinolin-7-yl)amino)pyrimidin-4-yl)amino)-5-(S-methylsulfonimidoyl)phenyl)dimethylphosphine oxide] came in with an inhibition at 1 µM of 96.6% and an inhibition at 10 µM of 96.4%. The IC50 (read-out: IC50) was < 50 nM.
